What was measured:
[1] = tested on: total proteinase 3 (PR3); assay: Flow cytometry of total (surface and intracellular) PR3 expression in differentiated neutrophils; format: cell-based, human
Experimental: (§1) To evaluate the pharmacological effects of INS1007 on surface PR3 expression, total PR3 expression, and NSP activity, stem cells were differentiated to neutrophils in the presence of INS1007 at increasing concentrations. Primary bone marrow (BM) or umbilical cord blood (UC) derived CD34^+ neutrophil progenitor cells (AllCells; Alameda, Calif.) were cultured for 7 days in STEMSPAN™ SFEM media (Stemcell Technologies; Tukwila, WA) supplemented with recombinant human Stem Cell Factor (Peprotech; Rocky Hill, NJ) and recombinant human IL-3 (Peprotech). The cells were differentiated in culture for another 7 days in STEMSPAN™ SFEM media (Stemcell Technologies) with recombinant human Granulocyte Colony Stimulating Factor (Peprotech), plus increasing concentrations of INS1007 (0-10 μM). At the end of the differentiation/treatment period, cells were harvested for analysis.
Differentiated neutrophils were harvested for flow cytometry to quantify PR3 expression on the surface of neutrophils (FIGS. 1 and 2) and neutrophil total PR3 expression (FIG. 3).

[2] = tested on: surface PR3; assay: Fluorescence microscopy of surface PR3 on neutrophils differentiated in presence of INS1007; format: cell-based, human; settings: differentiation in the presence of 10 μM; neutrophils derived from bone marrow and umbilical cord stem cells (both cell types)
Experimental: as §1, with “At the end of the differentiation/treatment period, cells were harvested for analysis.” left out
In a separate experiment, neutrophils were harvested, stained for 30 min. with either a mouse anti-PR3 monoclonal antibody (Abcam; Cambridge, Mass.) or a mouse monoclonal IgG isotype control (Abcam), followed by a Cy5-conjugated goat anti-mouse IgG secondary antibody (Abcam), fixed in 4% formaldehyde, and mounted to glass slides with PROLONGTM Diamond Antifade Mountant with DAPI (Thermo Fisher; Waltham, Mass.). Samples were imaged with an Axio fluorescence microscope (Zeiss; Oberkochen, Germany) using constant settings while imaging samples from different treatment conditions.

## Cn1c(=O)oc2ccc(-c3ccc(C[C@@H](C#N)NC(=O)[C@@H]4CNCCCO4)cc3)cc21 [INS1007, (2S)-N-{(1S)-1-cyano-2-[4-(3-methyl-2-oxo-2,3-dihydro-1,3-benzoxazol-5-yl)phenyl]ethyl}-1,4-oxazepane-2-carboxamide]
[1]; bone marrow stem cell-derived neutrophils, not completely concentration-dependent
  total PR3 levels: significantly reduced
[1]; neutrophils derived from either umbilical cord blood or bone marrow stem cells
  percentage of cells with positive total PR3 expression: did not reduce
[1]; umbilical cord blood stem cell-derived neutrophils
  total PR3 levels: did not reach statistically significant reduction
[2]
  surface PR3 (fluorescence microscopy): markedly reduced

Source: patent publication US20210186984A1, “CERTAIN (2S)-N-[(1S)-1-CYANO-2-PHENYLETHYL]-1,4-OXAZEPANE-2-CARBOXAMIDES FOR TREATING ANCA ASSOCIATED VASCULITIDES” (Insmed Incorporated, priority 2018, published 2021)
